Measurements as given in patent US6706709B2, “Indolinone derivatives as protein kinase/phosphatase inhibitors” (Sugen, Inc., priority 2000, dated 2004).

Tests used:
GST-Flk1 = GST-Flk1 (UniProt P35918); assay: GST-FLK-1 bioassay (bio flkGST); assay type: biochemical
Outline: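 ELISA with Sf9-expressed GST-Flk1cd (5 ng/well) phosphorylating plate-coated poly(Glu,Tyr) 4:1 in Hepes pH 7.5 with MnCl2 and ATP (2 μM as 4× stock), 15 min at room temperature; EDTA stop. Phosphotyrosine detected with PY99-HRP and ABTS at 410 nm.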

EGF Receptor = target: T1, EGF Receptor (Homo sapiens, UniProt P00533); assay: bio EGF (EGF Receptor ELISA); assay type: biochemical
T1 construct: expressed in transfected cells; host or cells: NIH 3T3/C7 (mouse fibroblasts engineered to express human EGF-R)
T1 sequence (P00533 25-1210): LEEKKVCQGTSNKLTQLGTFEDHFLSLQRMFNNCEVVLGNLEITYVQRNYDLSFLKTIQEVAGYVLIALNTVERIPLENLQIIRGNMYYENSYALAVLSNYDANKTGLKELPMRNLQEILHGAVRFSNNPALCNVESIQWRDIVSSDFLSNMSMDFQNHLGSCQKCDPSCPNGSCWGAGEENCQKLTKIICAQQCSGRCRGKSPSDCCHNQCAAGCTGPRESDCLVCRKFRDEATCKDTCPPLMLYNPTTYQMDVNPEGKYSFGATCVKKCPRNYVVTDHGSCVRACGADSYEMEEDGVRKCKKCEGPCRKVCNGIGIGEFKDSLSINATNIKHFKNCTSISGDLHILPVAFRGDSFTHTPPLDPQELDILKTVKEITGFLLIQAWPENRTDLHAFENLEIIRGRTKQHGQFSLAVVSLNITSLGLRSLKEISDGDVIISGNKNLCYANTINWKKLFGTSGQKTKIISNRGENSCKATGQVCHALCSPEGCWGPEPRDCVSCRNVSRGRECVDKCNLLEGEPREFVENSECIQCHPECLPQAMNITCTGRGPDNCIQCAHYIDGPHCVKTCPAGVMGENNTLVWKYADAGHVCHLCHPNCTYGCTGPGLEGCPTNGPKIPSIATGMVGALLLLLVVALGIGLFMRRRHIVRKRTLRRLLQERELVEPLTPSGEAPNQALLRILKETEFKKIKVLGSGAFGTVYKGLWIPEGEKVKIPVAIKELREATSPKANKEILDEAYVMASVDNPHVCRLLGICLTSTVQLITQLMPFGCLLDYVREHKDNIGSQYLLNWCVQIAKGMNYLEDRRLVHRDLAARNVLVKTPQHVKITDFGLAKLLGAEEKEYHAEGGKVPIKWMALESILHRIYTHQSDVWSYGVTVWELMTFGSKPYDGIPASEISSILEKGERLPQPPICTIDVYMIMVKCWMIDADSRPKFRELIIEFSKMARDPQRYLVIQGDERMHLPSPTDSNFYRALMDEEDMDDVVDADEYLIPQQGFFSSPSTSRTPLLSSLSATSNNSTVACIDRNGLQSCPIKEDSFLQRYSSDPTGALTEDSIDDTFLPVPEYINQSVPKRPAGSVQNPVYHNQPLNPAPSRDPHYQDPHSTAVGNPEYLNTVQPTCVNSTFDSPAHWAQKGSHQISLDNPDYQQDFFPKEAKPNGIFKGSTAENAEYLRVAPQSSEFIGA
Outline: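 Cells engineered to express human EGFR, seeded in 0.5% serum for ~40 h, then exposed to drug (stock diluted to 1:200 final, 1% DMSO) before 5 min EGF stimulation at 25 nM final. Lysates captured on anti-EGFR-coated plates, and phosphotyrosine detected by anti-pTyr/HRP ELISA at 410 nm. Percent inhibition calculated relative to control wells after negative-control subtraction.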

SMILES	IC50 (GST-Flk1) [nM]	IC50 (EGF Receptor) [nM]
CN(C)S(=O)(=O)c1ccc2c(c1)C(=Cc1cc3cc(OCCN4CCCC4)ccc3[nH]1)C(=O)N2 [IN-042, 2-oxo-3-[5-(2-pyrrolidin-1-yl-ethoxy)-1H-indol-2-ylmethylene]-2,3-dihydro-1H-indole-5-sulfonic acid dimethylamide]	1340	7840
O=C1Nc2cc(-c3ccccc3)ccc2C1=Cc1cc2cc(OCCN3CCOCC3)ccc2[nH]1 [IN-009, 3-[5-(2-morpholin-4-yl-ethoxy)-1H-indol-2-ylmethylene]-6-phenyl-1,3-dihydro-indol-2-one]	9420	> 100000
NS(=O)(=O)c1ccc2c(c1)C(=Cc1cc3cc(OCCN4CCOCC4)ccc3[nH]1)C(=O)N2 [IN-040, 3-[5-(2-morpholin-4-yl-ethoxy)-1H-indol-2-ylmethylene]-2-oxo-2,3-dihydro-1H-indole-5-sulfonic acid amide]	210	> 100000
CCN(CC)CCCc1ccc2[nH]c(C=C3C(=O)Nc4ccc(-c5ccccc5)cc43)cc2c1 [IN-004, 3-[5-(3-diethylamino-propyl)-1H-indol-2-ylmethylene]-5-phenyl-1,3-dihydro-indol-2-one]	470	2570
O=C1Nc2ccc(Br)cc2C1=Cc1cc2cc(OCCN3CCOCC3)ccc2[nH]1 [IN-008, 5-bromo-3-[5-(2-morpholin-4-yl-ethoxy)-1H-indol-2-ylmethylene]-1,3-dihydro-indol-2-one]	220	1970
O=C1Nc2cc(-c3cccnc3)ccc2C1=Cc1cc2cc(OCCN3CCCC3)ccc2[nH]1 [IN-025, 6-pyridin-3-yl-3-[5-(2-pyrrolidin-1-yl-ethoxy)-1H-indol-2-ylmethylene]-1,3-dihydro-indol-2-one]	140	> 20000
CN(c1cccc(Cl)c1)S(=O)(=O)c1ccc2c(c1)C(=Cc1cc3cc(OCCN4CCCC4)ccc3[nH]1)C(=O)N2 [IN-048, 2-oxo-3-[5-(2-pyrrolidin-1-yl-ethoxy)-1H-indol-2-ylmethylene]-2,3-dihydro-1H-indole-5-sulfonic acid (3-chloro-phenyl)-methyl-amide]	1160	2130
